In patent publication US6828315B1, “1-Amino triazoloc4,3-a! quinazoline-5-ones and/or -5-thiones inhibiting phosphodiesterase IV” (Warner-Lambert LLC, priority 1999, dated 2004) one finds melting point data, which are given here for 37 compounds.

By melting point is commonly meant the temperature, or range, at which the solid turns liquid.

`COC(=O)c1cc(C(=O)Cn2nc(N3CCCCCC3)n3c4ccc(Cl)cc4c(=O)nc23)ccc1OC` [Compound 133, 5-[(1-(azepan-1-yl)-7-chloro-5-oxo-5H-[1,2,4]triazolo[4,3-a]-quinazolin-3-yl)acetyl]-2-methoxybenzoic acid methyl ester] returned a melting point of 136 °C.

The compound `O=c1nc2n(Cc3ccc(Cl)cc3)nc(N3CCCCCC3)n2c2ccc(Br)cc12` [Compound 134, 1-(azepan-1-yl)-7-bromo-3-(4-chlorobenzyl)-3H-[1,2,4]triazolo[4,3-a]quinazolin-5-one] came in with a melting point of 247 °C.

Consider `O=c1nc2n(Cc3ccc(F)cc3)nc(N3CCCCCC3)n2c2ccc(Br)cc12` [Compound 135, 1-(azepan-1-yl)-7-bromo-3-(4-fluorobenzyl)-3H-[1,2,4]triazolo[4,3-a]quinazolin-5-one], for which the melting point was 216 °C.

As for `N#Cc1ccc(Cn2nc(N3CCCCCC3)n3c4ccc(Br)cc4c(=O)nc23)cc1` [Compound 136, 4(1-(azepan-1-yl)-7-bromo-5-oxo-5H-[1,2,4]triazolo[4,3-a]-quinazolin-3-ylmethyl)-benzonitrile], the melting point came to 293 °C.

In the case of `COc1ccc(Cn2nc(N3CCCCCC3)n3c4ccc(Br)cc4c(=O)nc23)cc1OC` [Compound 137, 1-(azepan-1-yl)-7-bromo-3-(3,4dimethoxybenzyl)-3H-[1,2,4]triazolo[4,3-a]quinazolin-5-one], the melting point was 174 °C.

Compound `O=C(O)Cc1ccc(Cn2nc(N3CCCCCC3)n3c4ccc(Br)cc4c(=O)nc23)cc1` [Compound 138, [4-(7-Bromo-5-oxo-1-perhydro-azepin-1-yl-5H-[1,2,4]triazolo[4,3-a]quinazolin-3-ylmethyl)-phenyl]-acetic acid] came in with a melting point of 269 °C.

With `O=c1nc2n(Cc3cccnc3)nc(N3CCCCCC3)n2c2ccc(Br)cc12` [Compound 139, 1-(azepan-1-yl)-7-bromo-3-(pyridin-3-ylmethyl)-3H-[1,2,4]triazolo[4,3-a]quinazolin-5-one], the melting point was determined as 192 °C.

As to `O=c1nc2n(C/C=C/c3ccccc3)nc(N3CCCCCC3)n2c2ccc(Br)cc12` [Compound 140, 1-Azepan-1-yl-7-bromo-3-((E)-3-phenyl-allyl)-3H-[1,2,4]triazolo(4,3-a]quinazolin-5-one], the melting point is 198 °C.

`O=c1nc2n(C/C=C/c3ccccc3)nc(N3CCCCC3)n2c2ccc(Br)cc12` [Compound 141, 7-Bromo-3-((E)-3-phenyl-allyl)-1-piperidin-1-yl-3H-[1,2,4]triazolo[4,3-a]quinazolin-5one] yielded a melting point of 187 °C.

`O=c1nc2n(Cc3ccc(F)cc3)nc(N3CCCC3)n2c2ccc(Br)cc12` [Compound 143, 7-bromo-3-(4-fluorobenzyl)-1-(pyrrolidin-1-yl)-3H-[1,2,4]triazolo[4,3-a]quinazolin-5-one]: the melting point came out at 233 °C.

The compound `N#Cc1ccc(Cn2nc(N3CCCC3)n3c4ccc(Br)cc4c(=O)nc23)cc1` [Compound 144, 4-(7-bromo-5-oxo-1-(pyrrolidin-1-yl)-5H-[1,2,4]triazolo[4,3-a]-quinazolin-3-ylmethyl)-benzonitrile] registered a melting point of 222 °C.

In the case of `COC(=O)c1ccc(Cn2nc(N3CCCC3)n3c4ccc(Br)cc4c(=O)nc23)cc1` [Compound 145, 4-(7-bromo-5-oxo-1-(pyrrolidin-1-yl)-5H-[1,2,4]triazolo[4,3-a]-quinazolin-3-ylmethyl)benzoic acid methyl ester], the melting point is 193 °C.

`COc1ccc(Cn2nc(N3CCCC3)n3c4ccc(Br)cc4c(=O)nc23)cc1` [Compound 146, 7-Bromo-3-(4-methoxy-benzyl)-1-pyrrolidin-1-yl-3H-[1,2,4]triazolo[4,3-a]quinazolin-5-one] came in with a melting point of 164 °C.

As to `CC(=O)Oc1ccc(Cn2nc(N3CCCC3)n3c4ccc(Br)cc4c(=O)nc23)cc1` [Compound 147, Acetic acid 4-(7-bromo-5-oxo-1-pyrrolidin-1-yl-5H-[1,2,4]triazolo[4,3-a]quinazolin-3-ylmethyl)phenyl ester], the melting point is 199 °C.

The compound `CN(C)c1nn(Cc2ccc(O)cc2)c2nc(=O)c3cc(Br)ccc3n12` [Compound 148, 7-Bromo-1-dimethylamino-3-(4-hydroxy-benzyl)-3H-[1,2,4)triazolo[4,3-a]quinazolin-5-one] returned a melting point of 283 °C.

`COc1cc(Cn2nc(N3CCCC3)n3c4ccc(Br)cc4c(=O)nc23)cc(OC)c1` [Compound 150, 7-bromo-3-(3,5-dimethoxy-benzyl)-1-(pyrrolidin-1-yl)-3H-[1,2,4]triazolo-[4,3-a]quinazolin-5-one] returned a melting point of 168 °C.

`COc1cc(Cn2nc(N3CCCC3)n3c4ccc(Br)cc4c(=O)nc23)cc(OC)c1OC` [Compound 151, 7-bromo-1-(pyrrolidin-1-yl)-3-(3,4,5-trimethoxybenzyl)-3H-[1,2,4]triazolo[4,3-a]quinazolin-5-one] came in with a melting point of 199 to 201 °C.

Compound `CCCCn1nc(N2CCCC2)n2c3ccc(Br)cc3c(=O)nc12` [Compound 153, 7-bromo-3-(n-butyl)-1-(pyrrolidin-1-yl)-3H-[1,2,4]triazolo[4,3-a]-quinazolin-5-one] had a melting point of 130 °C.

`COC(=O)C(c1ccccc1)n1nc(N2CCCC2)n2c3ccc(Br)cc3c(=O)nc12` (stereo not shown) [Compound 154, (7-Bromo-5oxo-1-pyrrolidin-1-yl-5H-[1,2,4]triazolo[4,3-a]quinazolin-3-yl)-phenyl-acetic acid methyl ester] came in with a melting point of 187 °C.

`CN(C)c1nn(CC=Cc2ccccc2)c2nc(=O)c3cc(Br)ccc3n12` [Compound 155, 7-Bromo-1-dimethylamino-3-(3-phenyl-allyl)-3H-[1,2,4]triazolo[4,3-a]quinazolin-5-one] registered a melting point of 206 °C.

`Cc1ccc2c(c1)c(=O)nc1n(CC=Cc3ccccc3)nc(N3CCCCCC3)n21` [Compound 157, 1-(azepan-1-yl)-7-methyl-3-(3-phenylallyl)-3H-[1,2,4]triazolo[4,3-a]quinazolin-5-one] registered a melting point of 193 °C.

In the case of `Cc1ccc2c(c1)c(=O)nc1n(CC=Cc3ccccc3)nc(N3CCCC3)n21` [Compound 158, 7-methyl-3-(3-phenylallyl)-1-(pyrrolidin-1-yl)-3H-[1,2,4]triazolo[4,3-a]quinazolin-5-one], the melting point came to 225 °C.

`O=c1nc2n(CC=Cc3ccccc3)nc(N3CCCC3)n2c2ccc(O)cc12` [Compound 161, 7-hydroxy-3-(3-phenylallyl)-1-(pyrrolidin-1-yl)-3H-[1,2,4]triazolo[4,3-a]quinazolin-5-one] registered a melting point of 255 °C.

For the compound `CCCCN(CCCC)c1nnc2n(C)c(=O)c3cc(Cl)ccc3n12` [Compound 167, 7-chloro-1-dibutylamino-4-methyl-4H-[1,2,4]triazolo[4,3-a]-quinazolin-5-one], the melting point turned out to be 112 °C.

`Cn1c(=O)c2cc(Cl)ccc2n2c(N3CCCCC3)nnc12` [Compound 168, 7-chloro-4-methyl-1-(piperidin-1-yl)4H-[1,2,4]triazolo[4,3-a]-quinazolin-5-one] displayed a melting point of 192 °C.

Regarding `CN1CCN(c2nnc3n(C)c(=O)c4cc(Cl)ccc4n23)CC1` [Compound 169, 7-Chloro-4-methyl-1-(4-methyl-piperazin-1-yl)-4H-[1,2,4]triazolo[4,3-a]quinazolin-5-one], the melting point lay in the range of 180 to 182 °C.

Take `Cn1c(=O)c2cc(Cl)ccc2n2c(N3CC4CCC(C)(C3)C4(C)C)nnc12` (stereo not shown) [Compound 170, 7-Chloro-4-methyl-1-(1,8,8-trimethyl-3-aza-bicyclo[3.2.1]oct-3-yl)-4H-[1,2,4]triazolo[4,3-a]quinazolin-5-one]: the melting point was 185 °C.

As for `O=c1c2cc(Cl)ccc2n2c(N3CCCCCC3)nnc2n1Cc1ccccc1` [Compound 172, 1-(azepan-1-yl)-4-benzyl-7-chloro-4H-[1,2,4]triazolo[4,3-a]-quinazolin-5-one], the melting point turned out to be 162 °C.

As for `O=c1c2cc(Cl)ccc2n2c(N3CCCC3)nnc2n1Cc1ccccc1` [Compound 173, 4-benzyl-7chloro-1-(pyrrolidin-1-yl)-4H-[1,2,4]triazolo[4,3-a]-quinazolin-5-one], the melting point is 163 °C.

For `O=c1c2cc(Cl)ccc2n2c(N3CCCCC3)nnc2n1Cc1ccccc1` [Compound 174, 4-benzyl-7-chloro-1-(piperidin-1-yl)-4H-[1,2,4]triazolo[4,3-a]-quinazolin-5-one], the melting point was determined as 178 °C.

`Cn1c(=O)c2ccc(Cl)cc2n2c(N3CCCCCC3)nnc12` [Compound 175, 1-(azepan-1-yl)-8-chloro-4-methyl-4H-[1,2,4]triazolo[4,3-a]-quinazolin-5-one]: the melting point turned out to be 179 °C.

`Cn1c(=O)c2cc(Br)ccc2n2c(N3CCCCCC3)nnc12` [Compound 177, 1-(azepan-1-yl)-7-bromo-4-methyl-4H-[1,2,4]triazolo[4,3-a]-quinazolin-5-one] had a melting point of 174 °C.

For `O=c1c2cc(Br)ccc2n2c(N3CCCCC3)nnc2n1Cc1ccccc1` [Compound 178, 4-benzyl-7-bromo-1-(piperidin-1-yl)-4H-[1,2,4]triazolo[4,3-a]-quinazolin-5-one], the melting point lay within 183 to 185 °C.

In turn, `CN(C)c1nnc2n(Cc3ccccc3)c(=O)c3cc(Br)ccc3n12` [Compound 179, 4-Benzyl-7-bromo-1-dimethylamino-4H-[1,2,4]triazolo[4,3-a]quinazolin-5-one] yielded a melting point of 171 °C.

For `O=c1c2cc(Br)ccc2n2c(N3CCOCC3)nnc2n1Cc1ccccc1` [Compound 180, 4-Benzyl-7-bromo-1-morpholin-4-yl-4H-[1,2,4]triazolo[4,3-a]quinazolin-5-one], the melting point amounted to 189 °C.

In the case of `O=c1c2cc(Br)ccc2n2c(N3CCSCC3)nnc2n1Cc1ccccc1` [Compound 181, 4-Benzyl-7-bromo-1-thiomorpholin-4-yl-4H-[1,2,4]triazolo[4,3-a]quinazolin-5-one], the melting point is 235 °C.

In turn, `CN1CCN(c2nnc3n(Cc4ccccc4)c(=O)c4cc(Br)ccc4n23)CC1` [Compound 182, 4-Benzyl-7-bromo-1-(4-methyl-piperazin-1-yl)-4H-[1,2,4]triazolo[4,3-a]quinazolin-5-one] showed a melting point of 230 °C.
